Experimental data published in patent publication US10183024B2, “Crystalline forms of ibrutinib” (Apotex Inc., priority 2016, dated 2019).

Assays:
[1] = PXRD study of crystal form stability on storage in stability chambers; type: physicochemical
Method: Ibrutinib Form APO-I can be characterized by a PXRD diffractogram comprising, among other peaks, characteristic peaks, expressed in degrees 2θ (±0.2°), at 5.1°, 7.6° and 12.5°. Preferably, the PXRD diffractogram further comprises at least three peaks, expressed in degrees 2θ (±0.2°), selected from the group consisting of: 10.1°, 11.1°, 14.2°, 15.4°, 16.3°, 17.3° and 18.7°. More preferably, the PXRD diffractogram further comprises peaks, expressed in degrees 2θ (±0.2°), at 10.1°, 11.1°, 14.2°, 15.4°, 16.3°, 17.3° and 18.7°. PXRD studies of capped and uncapped samples of Ibrutinib Form APO-I have shown that this crystal form is stable following storage in stability chambers maintained at 27° C./60% RH for at least 31 days and 40° C./75% RH for at least 21 days.
Ibrutinib Form APO-II can be characterized by a PXRD diffractogram comprising, among other peaks, characteristic peaks, expressed in degrees 2θ (±0.2°), at 6.4°, 10.1° and 12.8°. Preferably, the PXRD diffractogram further comprises at least three peaks, expressed in degrees 2θ (±0.2°), selected from the group consisting of: 13.8°, 17.6°, 18.4°, 19.4°, 20.4°, 21.0°, 21.7°, 23.2°, 24.1° and 24.9°. More preferably, the PXRD diffractogram further comprises peaks, expressed in degrees 2θ (±0.2°), at 13.8°, 17.6°, 18.4°, 19.4°, 20.4°, 21.0°, 21.7°, 23.2°, 24.1° and 24.9°. PXRD studies of capped and uncapped samples of Ibrutinib Form APO-II have shown that this crystal form is stable following storage in stability chambers maintained at 27° C./60% RH and 40° C./75% RH for at least 25 days.
Ibrutinib Form APO-IV can be characterized by a PXRD diffractogram comprising, among other peaks, characteristic peaks, expressed in degrees 2θ (±0.2°), at 6.4°, 10.2° and 12.9°. Preferably, the PXRD diffractogram further comprises at least three peaks, expressed in degrees 2θ (±0.2°), selected from the group consisting of: 13.9°, 17.7°, 18.4°, 19.4°, 20.5°, 21.3°, 21.8°, 23.2°, 24.2° and 24.9°. More preferably, the PXRD diffractogram further comprises peaks, expressed in degrees 2θ (±0.2°), at 13.9°, 17.7°, 18.4°, 19.4°, 20.5°, 21.3°, 21.8°, 23.2°, 24.2° and 24.9°. PXRD studies of uncapped samples of Ibrutinib Form APO-IV have shown that this crystal form is stable following storage in a stability chambers maintained at 40° C./75% RH for at least 11 months.
Data were acquired on a PANanalytical X-Pert Pro MPD diffractometer with fixed divergence slits and an X'Celerator RTMS detector. The diffractometer was configured in Bragg-Brentano geometry; data was collected over a 2-theta range of 3° to 40° using CuKα radiation at a power of 40 mA and 45 kV. CuKβ radiation was removed using a divergent beam nickel filter. A step size of 0.017° was used. Samples were rotated to reduce preferred orientation effects. Samples were lightly ground prior to analysis.

[2] = cited from earlier work
[3] = 27° C./60% RH, capped and uncapped samples
[4] = 40° C./75% RH, capped and uncapped samples

Row | crystal form stable following storage (PXRD) [1, 3] | crystal form stable following storage (PXRD) [1, 4] | SMILES | also measured
1 | at least 25 days | at least 25 days | C=CC(=O)N1CCCC(n2nc(-c3ccc(Oc4ccccc4)cc3)c3c(N)ncnc32)C1 (stereo not shown) [Form APO-II] | –
2 | – | – | C=CC(=O)N1CCCC(n2nc(-c3ccc(Oc4ccccc4)cc3)c3c(N)ncnc32)C1 (stereo not shown) [Form APO-IV] | crystal form stable following storage (PXRD) ([1]; 40° C./75% RH, uncapped samples): at least 11 months
3 | at least 31 days | at least 21 days | C=CC(=O)N1CCCC(n2nc(-c3ccc(Oc4ccccc4)cc3)c3c(N)ncnc32)C1 (stereo not shown) [Form APO-I] | –
4 | – | – | C=CC(=O)N1CCCC(n2nc(-c3ccc(Oc4ccccc4)cc3)c3c(N)ncnc32)C1 (stereo not shown) [Form A] | solubility ([2]; drug substance in IMBRUVICA, per AusPAR): pH dependent solubility
5 | – | – | C=CC(=O)N1CCCC(n2nc(-c3ccc(Oc4ccccc4)cc3)c3c(N)ncnc32)C1 (stereo not shown) [Form B] | aqueous solubility ([2]; reported for other anhydrous forms): low aqueous solubility
